Data: the supplement of paper PMC10307832

How the values were obtained:
Experiment in all cases: relative viability (nuclei count vs DMSO), 5 days (fraction); higher = more cells survive
NCI-H322M = test system: NCI-H322M
Method in brief: (§1)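 The day after seeding in 1536-well plates, lung cancer cell lines were treated by pin tool with a single drug, or with a fixed anchor-drug dose together with five library-drug doses (not always all listed) in √10 steps. After 5 days, a combined fix-and-stain solution (final 0.05% Triton X-100, 1% formaldehyde, 1 ug/ml Hoechst) was added. Nuclei counted on 4× images gave relative viability as treated counts over vehicle counts, reported as the median of duplicate plates.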

NCI-H2170 = test system: NCI-H2170
Method in brief: as §1

NCI-H441 = test system: NCI-H441
Method in brief: as §1

NCI-H1650 = test system: NCI-H1650
Method in brief: as §1

NCI-H2023 = test system: NCI-H2023
Method in brief: as §1

201T = test system: 201T
Method in brief: as §1

EPLC-272H = test system: EPLC-272H
Method in brief: as §1

HCC-15 = test system: HCC-15
Method in brief: as §1

NCI-H2347 = test system: NCI-H2347
Method in brief: as §1

SW 900 = test system: SW 900
Method in brief: as §1

COR-L23 = test system: COR-L23
Method in brief: as §1

NCI-H647 = test system: NCI-H647
Method in brief: as §1

H3255 = test system: H3255
Method in brief: as §1

NCI-H520 = test system: NCI-H520
Method in brief: as §1

UMC-11 = test system: UMC-11
Method in brief: as §1

NCI-H2405 = test system: NCI-H2405
Method in brief: as §1

LOU-NH91 = test system: LOU-NH91
Method in brief: as §1

NCI-H1734 = test system: NCI-H1734
Method in brief: as §1

NCI-H1793 = test system: NCI-H1793
Method in brief: as §1

PC-14 = test system: PC-14
Method in brief: as §1

NCI-H3122 = test system: NCI-H3122
Method in brief: as §1

## CC(=O)O[C@@]12CO[C@@H]1C[C@H](O)[C@@]1(C)C(=O)[C@H](O)C3=C(C)[C@@H](OC(=O)[C@H](O)[C@@H](NC(=O)OC(C)(C)C)c4ccccc4)C[C@@](O)([C@@H](OC(=O)c4ccccc4)[C@H]21)C3(C)C [Docetaxel] + Cc1cc(Nc2cc(N3CCN(C)CC3)nc(Sc3ccc(NC(=O)C4CC4)cc3)n2)n[nH]1 [Tozasertib] (partner 0.1 µM)
NCI-H322M; first compound 0.0002 µM
  relative viability: 0.479
NCI-H322M; first compound 0.000632 µM
  relative viability: 0.477
NCI-H322M; first compound 0.002 µM
  relative viability: 0.49
NCI-H322M; first compound 0.006325 µM
  relative viability: 0.485
NCI-H322M; first compound 0.02 µM
  relative viability: 0.476
NCI-H2170; first compound 0.0002 µM
  relative viability: 0.615
NCI-H2170; first compound 0.000632 µM
  relative viability: 0.581
NCI-H2170; first compound 0.002 µM
  relative viability: 0.43
NCI-H2170; first compound 0.006325 µM
  relative viability: 0.222
NCI-H2170; first compound 0.02 µM
  relative viability: 0.175
NCI-H441; first compound 0.0002 µM
  relative viability: 0.634
NCI-H441; first compound 0.000632 µM
  relative viability: 0.489
NCI-H441; first compound 0.002 µM
  relative viability: 0.293
NCI-H441; first compound 0.006325 µM
  relative viability: 0.306
NCI-H441; first compound 0.02 µM
  relative viability: 0.248
NCI-H1650; first compound 0.0002 µM
  relative viability: 0.386
NCI-H1650; first compound 0.000632 µM
  relative viability: 0.328
NCI-H1650; first compound 0.006325 µM
  relative viability: 0.306
NCI-H1650; first compound 0.02 µM
  relative viability: 0.168
NCI-H2023; first compound 0.0002 µM
  relative viability: 0.317
NCI-H2023; first compound 0.000632 µM
  relative viability: 0.288
NCI-H2023; first compound 0.002 µM
  relative viability: 0.11
NCI-H2023; first compound 0.006325 µM
  relative viability: 0.158
NCI-H2023; first compound 0.02 µM
  relative viability: 0.0697
201T; first compound 0.0002 µM
  relative viability: 0.937
201T; first compound 0.000632 µM
  relative viability: 0.751
201T; first compound 0.002 µM
  relative viability: 0.581
201T; first compound 0.006325 µM
  relative viability: 0.453
201T; first compound 0.02 µM
  relative viability: 0.325
EPLC-272H; first compound 0.0002 µM
  relative viability: 0.219
EPLC-272H; first compound 0.000632 µM
  relative viability: 0.129
EPLC-272H; first compound 0.002 µM
  relative viability: 0.132
EPLC-272H; first compound 0.006325 µM
  relative viability: 0.0975
EPLC-272H; first compound 0.02 µM
  relative viability: 0.104
HCC-15; first compound 0.0002 µM
  relative viability: 0.391
HCC-15; first compound 0.000632 µM
  relative viability: 0.266
HCC-15; first compound 0.002 µM
  relative viability: 0.174
HCC-15; first compound 0.006325 µM
  relative viability: 0.239
HCC-15; first compound 0.02 µM
  relative viability: 0.135
NCI-H2347; first compound 0.0002 µM
  relative viability: 0.511
NCI-H2347; first compound 0.000632 µM
  relative viability: 0.594
NCI-H2347; first compound 0.002 µM
  relative viability: 0.441
NCI-H2347; first compound 0.006325 µM
  relative viability: 0.293
NCI-H2347; first compound 0.02 µM
  relative viability: 0.268
SW 900; first compound 0.0002 µM
  relative viability: 0.453
SW 900; first compound 0.000632 µM
  relative viability: 0.296
SW 900; first compound 0.002 µM
  relative viability: 0.259
SW 900; first compound 0.006325 µM
  relative viability: 0.277
SW 900; first compound 0.02 µM
  relative viability: 0.173
COR-L23; first compound 0.0002 µM
  relative viability: 0.199
COR-L23; first compound 0.000632 µM
  relative viability: 0.21
COR-L23; first compound 0.002 µM
  relative viability: 0.141
COR-L23; first compound 0.006325 µM
  relative viability: 0.153
COR-L23; first compound 0.02 µM
  relative viability: 0.133
NCI-H647; first compound 0.0002 µM
  relative viability: 0.258
NCI-H647; first compound 0.000632 µM
  relative viability: 0.339
NCI-H647; first compound 0.002 µM
  relative viability: 0.148
NCI-H647; first compound 0.006325 µM
  relative viability: 0.132
NCI-H647; first compound 0.02 µM
  relative viability: 0.103
H3255; first compound 0.0002 µM
  relative viability: 0.83
H3255; first compound 0.000632 µM
  relative viability: 0.507
H3255; first compound 0.002 µM
  relative viability: 0.241
H3255; first compound 0.006325 µM
  relative viability: 0.264
H3255; first compound 0.02 µM
  relative viability: 0.236
NCI-H520; first compound 0.0002 µM
  relative viability: 0.418
NCI-H520; first compound 0.000632 µM
  relative viability: 0.468
NCI-H520; first compound 0.002 µM
  relative viability: 0.445
NCI-H520; first compound 0.006325 µM
  relative viability: 0.376
NCI-H520; first compound 0.02 µM
  relative viability: 0.317
UMC-11; first compound 0.0002 µM
  relative viability: 0.193
UMC-11; first compound 0.000632 µM
  relative viability: 0.193
UMC-11; first compound 0.002 µM
  relative viability: 0.218
UMC-11; first compound 0.006325 µM
  relative viability: 0.227
UMC-11; first compound 0.02 µM
  relative viability: 0.217
NCI-H2405; first compound 0.0002 µM
  relative viability: 0.699
NCI-H2405; first compound 0.000632 µM
  relative viability: 0.556
NCI-H2405; first compound 0.002 µM
  relative viability: 0.461
NCI-H2405; first compound 0.006325 µM
  relative viability: 0.361
NCI-H2405; first compound 0.02 µM
  relative viability: 0.278
LOU-NH91; first compound 0.0002 µM
  relative viability: 0.657
LOU-NH91; first compound 0.000632 µM
  relative viability: 0.574
LOU-NH91; first compound 0.002 µM
  relative viability: 0.39
LOU-NH91; first compound 0.006325 µM
  relative viability: 0.383
LOU-NH91; first compound 0.02 µM
  relative viability: 0.247
NCI-H1734; first compound 0.0002 µM
  relative viability: 0.308
NCI-H1734; first compound 0.000632 µM
  relative viability: 0.345
NCI-H1734; first compound 0.002 µM
  relative viability: 0.302
NCI-H1734; first compound 0.006325 µM
  relative viability: 0.341
NCI-H1734; first compound 0.02 µM
  relative viability: 0.292
NCI-H1793; first compound 0.0002 µM
  relative viability: 0.372
NCI-H1793; first compound 0.000632 µM
  relative viability: 0.285
NCI-H1793; first compound 0.002 µM
  relative viability: 0.197
NCI-H1793; first compound 0.006325 µM
  relative viability: 0.195
NCI-H1793; first compound 0.02 µM
  relative viability: 0.136
PC-14; first compound 0.0002 µM
  relative viability: 0.534
PC-14; first compound 0.000632 µM
  relative viability: 0.489
PC-14; first compound 0.002 µM
  relative viability: 0.0877
PC-14; first compound 0.006325 µM
  relative viability: 0.0613
PC-14; first compound 0.02 µM
  relative viability: 0.0312
NCI-H3122; first compound 0.0002 µM
  relative viability: 0.339
NCI-H3122; first compound 0.000632 µM
  relative viability: 0.278
NCI-H3122; first compound 0.002 µM
  relative viability: 0.217
NCI-H3122; first compound 0.006325 µM
  relative viability: 0.179
NCI-H3122; first compound 0.02 µM
  relative viability: 0.122
